Data from patent US12338256B2, “Aza-tetracyclic oxazepine compounds and uses thereof” (Genentech, Inc., priority 2022, dated 2025).
Like-named read-outs stand apart in the source and are kept apart here.

Legend:
Format in all cases: cell-based
[1] = system: HPAC (homozygous mutant KRAS G12D human pancreatic cell line); experiment: KRAS 3D-Cell Proliferation Assay, HPAC (Example 503); details: Homo sapiens, HPAC, 168 h, HPAC 3D culture, 7 days, CellTiter-Glo 3D; read-out: Prolif HPAC 3D ATP IC50
How it was run: (§1)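 IC50s come from a 4-parameter Hill fit of luminescence (CellTiter-Glo 3D) normalized between DMSO (0%) and 1 μM staurosporine (100%). Cells in low-attachment 3D culture, RPMI-1640 with 10% FBS, received serial compound dilutions (0.3% DMSO) after overnight and were incubated 7 days at 37 °C.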

[2] = system: H1975 (KRAS wild type human lung adenocarcinoma cell line); experiment: KRAS 3D-Cell Proliferation Assay, H1975 (Example 503); details: Homo sapiens, NCI-H1975, 168 h, H1975 3D culture, 7 days, CellTiter-Glo 3D; read-out: Prolif H1975 3D ATP IC50
How it was run: as §1

[3] = system: AsPC-1 (homozygous mutant KRAS G12D human pancreatic cell line); experiment: KRAS 3D-Cell Proliferation Assay, AsPC-1 (Example 503); details: AsPC-1 3D culture, 7 days, CellTiter-Glo 3D, read-out: Prolif AsPC-1 3D ATP IC50
Protocol: Example 503: KRAS 3D-Cell Proliferation Assays. Cellular potencies of compounds are assessed by evaluating inhibition of proliferation in 3D cultures of homozygous mutant KRAS G12D human pancreatic cell lines (AsPC-1 and HPAC) as compared to a KRAS wild type human lung adenocarcinoma cell line (PC-9 and/or H1975). Cells are seeded into 384-well black round-bottom, ultra-low attachment assay plates in 50 uL cell growth medium (RPMI-1640 with 10% fetal bovine serum and 2 mM L-glutamine). After overnight incubation at 37° C. and 5% CO2, compounds solubilized in DMSO are added as dilution series to the wells in a total volume of 150 nL (0.3% DMSO final). The cells are incubated for 7 days at 37° C. and 5% CO2. Cell proliferation is quantitated by addition of 40 uL/well of CellTiter-GloÒ 3D (Promega), and the well contents are mixed 20× at high speed using liquid handling automation workstation (Bravo with 384-well head) and centrifuged at 1500 rpm for 2 minutes to eliminate bubbles. This reagent in combination with mechanical disruption releases the cellular ATP to promote activity in a luciferase-based enzyme/substrate chemiluminescent detection system. After a 30-minute incubation under ambient conditions with shaking and an additional 10 minutes without shaking, the luminescence is read on a plate reader (e.g., EnVision [PerkinElmer]). The results are normalized to percent inhibition based on the following control samples: DMSO (0% inhibition) and 1 μM staurosporine (100% inhibition). The normalized luminescence results are plotted against compound concentration, and the data are fit to a 4-parameter Hill equation to determine the IC50 values.

Compound | IC50 [1] | IC50 [2] | IC50 ([3]; Homo sapiens, ASPC1, 168 h) | IC50 [3]
Cc1c(F)c(N)cc(-c2nc3c4c(nc(OCC5(CN6CCOCC6)CC5)nc4c2F)N2C[C@H]4CC[C@H](N4)[C@H]2[C@H](C)O3)c1C(F)(F)F [Compound 118, 2-Fluoro-5-((5S,5aS,6S,9R)-1-fluoro-5-methyl-12-((1-(morpholinomethyl)cyclopropyl)methoxy)-5a,6,7,8,9,10-hexahydro-5H-4-oxa-3,10a,11,13,14-pentaaza-6,9-methanonaphtho[1,8-ab]heptalen-2-yl)-3-methyl-4-(trifluoromethyl)aniline] | 0.43 nM | 519 nM | 0.6 nM | –
Cc1c(F)c(N)cc(-c2nc3c4c(nc(OC[C@H]5[C@@H](O)CCN5C)nc4c2F)N2C[C@H]4CC[C@H](N4)[C@H]2[C@H](C)O3)c1C(F)(F)F [Compound 162, (2S,3S)-2-((((5S,5aS,6S,9R)-2-(5-Amino-4-fluoro-3-methyl-2-(trifluoromethyl)phenyl)-1-fluoro-5-methyl-5a,6,7,8,9,10-hexahydro-5H-4-oxa-3,10a,11,13,14-pentaaza-6,9-methanonaphtho[1,8-ab]heptalen-12-yl)oxy)methyl)-1-methylpyrrolidin-3-ol] | 48.7 nM | 9450 nM | 200 nM | –
Cc1nc(N)cc(-c2nc3c4c(nc(OC[C@@]56CCCN5C[C@H](F)C6)nc4c2F)N2C[C@H]4CC[C@H](N4)[C@H]2[C@H](C(F)(F)F)O3)c1C(F)(F)F [Compound 242, 4-((5R,5aS,6S,9R)-1-Fluoro-12-(((2R,7aS)-2-fluorotetrahydro-1H-pyrrolizin-7a(5H)-yl)methoxy)-5-(trifluoromethyl)-5a,6,7,8,9,10-hexahydro-5H-4-oxa-3,10a,11,13,14-pentaaza-6,9-methanonaphtho[1,8-ab]heptalen-2-yl)-6-methyl-5-(trifluoromethyl)pyridin-2-amine] | 5.11 nM | 1040 nM | 7.8 nM | –
Cc1c(F)c(N)cc(-c2nc3c4c(nc(OCC56CCN5CC(F)(F)C6)nc4c2F)N2C[C@H]4CC[C@H](N4)[C@H]2[C@H](C(F)(F)F)O3)c1C(F)(F)F (single isomer, unassigned) [263 (diast. 1)] | – | – | 7.1 nM | –
Cc1c(F)c(N)cc(-c2nc3c4c(nc(OCC5COCC6CCCN65)nc4c2F)N2CC4CCC(N4)C2C(C)O3)c1C(F)(F)F (single isomer, unassigned) [121 (isomer 2)] | – | – | 41 nM | –
Cc1c(F)c(N)cc(-c2nc3c4c(nc(OCC56CCCN5CC(F)C6F)nc4c2F)N2C[C@H]4CC[C@H](N4)[C@H]2[C@H](C)O3)c1C(F)(F)F (single isomer, unassigned) [143 (isomer 2)] | – | – | 4.1 nM | –
Cc1cc(N)c(F)c(-c2nc3c4c(nc(OCC56CCN5CC(F)(F)C6)nc4c2F)N2C[C@H]4CC[C@H](N4)[C@H]2[C@H](C)O3)c1 (stereo in doubt) [Compound 23, 3-((5S,5aS,6S,9R)-12-((3,3-difluoro-1-azabicyclo[3.2.0]heptan-5-yl)methoxy)-1-fluoro-5-methyl-5a,6,7,8,9,10-hexahydro-5H-4-oxa-3,10a,11,13,14-pentaaza-6,9-methanonaphtho[1,8-ab]heptan-2-yl)-2-fluoro-5-methylaniline] | – | – | 14000 nM | ≥ 20000 nM
C[C@@H]1Oc2nc(-c3c(Cl)c(N)c(F)c(F)c3C(F)(F)F)c(F)c3nc(OC[C@@]45CCCN4C[C@H](F)C5)nc(c23)N2C[C@H]3CC[C@H](N3)[C@@H]12 (atropisomer, axis not shown; (aS)) [Compound 106, 2-Chloro-5,6-difluoro-3-((5S,5aS,6S,9R)-1-fluoro-12-(((2R,7aS)-2-fluorotetrahydro-1H-pyrrolizin-7a(5H)-yl)methoxy)-5-methyl-5a,6,7,8,9,10-hexahydro-5H-4-oxa-3,10a,11,13,14-pentaaza-6,9-methanonaphtho[1,8-ab]heptalen-2-yl)-4-(trifluoromethyl)aniline] | – | 770 nM | 5.4 nM | –
Cc1c(F)c(N)cc(-c2nc3c4c(nc(OC[C@]5(CN6CC7(COC7)C6)CC5(F)F)nc4c2F)N2C[C@H]4CC[C@H](N4)[C@H]2[C@H](C(F)(F)F)O3)c1C(F)(F)F [255 a] | – | – | – | 6.6 nM
Cc1cc(N)c(F)c(-c2nc3c4c(ncnc4c2Cl)N2C[C@H]4CC[C@H](N4)[C@H]2[C@H](C)O3)c1C(F)(F)F (atropisomer, axis not shown) [Compound 95, 3-((5S,5aS,6S,9R)-1-chloro-5-methyl-5a,6,7,8,9,10-hexahydro-5H-4-oxa-3,10a,11,13,14-pentaaza-6,9-methanonaphtho[1,8-ab]heptalen-2-yl)-2-fluoro-5-methyl-4-(trifluoromethyl)aniline] | – | – | 200 nM | –
Cc1c(F)c(N)cc(-c2nc3c4c(nc(OCC56CCCC5N(C)CCC6)nc4c2F)N2C[C@H]4CC[C@H](N4)[C@H]2[C@H](C)O3)c1C(F)(F)F (single isomer, unassigned) [126 (isomer 1)] | – | – | 0.6 nM | –
Cc1c(F)c(N)cc(-c2nc3c4c(nc(OCC5(CN6CC6(C)C)CC5)nc4c2F)N2C[C@H]4CC[C@H](N4)[C@H]2[C@H](C)O3)c1C(F)(F)F (stereo partly drawn) [Compound 259, 5-((5S,5aS,6S,9R)-12-((1-((2,2-Dimethylaziridin-1-yl)methyl)cyclopropyl)methoxy)-1-fluoro-5-methyl-5a,6,7,8,9,10-hexahydro-5H-4-oxa-3,10a,11,13,14-pentaaza-6,9-methanonaphtho[1,8-ab]heptalen-2-yl)-2-fluoro-3-methyl-4-(trifluoromethyl)aniline] | 12.3 nM | 1970 nM | – | –
Cc1nc(N)cc(-c2nc3c4c(nc(OCC5(CN6CC7CC(C6)O7)CC5)nc4c2F)N2C[C@H]4CC[C@H](N4)[C@H]2[C@H](C)O3)c1C(F)(F)F [Compound 265, 4-((5S,5aS,6S,9R)-12-((1-((6-oxa-3-azabicyclo[3.1.1]heptan-3-yl)methyl)cyclopropyl)methoxy)-1-fluoro-5-methyl-5a,6,7,8,9,10-hexahydro-5H-4-oxa-3,10a,11,13,14-pentaaza-6,9-methanonaphtho[1,8-ab]heptalene-2-yl)-6-methyl-5-(trifluoromethyl)pyridin-2-amine] | 2.24 nM | 6240 nM | – | –
Cc1cc(N)c(Cl)c(-c2nc3c4c(nc(OC[C@@H]5CC[C@H]6COCCN65)nc4c2F)N2C[C@H]4CC[C@H](N4)[C@H]2[C@H](C)O3)c1C(F)(F)F [Compound 103, 2-Chloro-3-((5S,5aS,6S,9R)-1-fluoro-12-(((6S,8aS)-hexahydro-1H-pyrrolo[2,1-c][1,4]oxazin-6-yl)methoxy)-5-methyl-5a,6,7,8,9,10-hexahydro-5H-4-oxa-3,10a,11,13,14-pentaaza-6,9-methanonaphtho[1,8-ab]heptalen-2-yl)-5-methyl-4-(trifluoromethyl)aniline] | 9.29 nM | 3460 nM | – | –
Cc1nc(N)cc(-c2nc3c4c(nc(OC[C@@]56CCN5CC(F)(F)C6)nc4c2F)N2C[C@H]4CC[C@H](N4)[C@H]2[C@H](C(F)(F)F)O3)c1C(F)(F)F (single isomer, unassigned) [252 (isomer 1)] | 20.4 nM | 7710 nM | – | –
Cc1c(F)c(N)cc(-c2nc3c4c(nc(OCCC5(N6CCOCC6)COC5)nc4c2F)N2C[C@H]4CC[C@H](N4)[C@H]2[C@H](C)O3)c1C(F)(F)F [Compound 149, 2-Fluoro-5-((5S,5aS,6S,9R)-1-fluoro-5-methyl-12-(2-(3-morpholinooxetan-3-yl)ethoxy)-5a,6,7,8,9,10-hexahydro-5H-4-oxa-3,10a,11,13,14-pentaaza-6,9-methanonaphtho[1,8-ab]heptalen-2-yl)-3-methyl-4-(trifluoromethyl)aniline] | 186 nM | 20000 nM | – | –
Cc1c(F)c(N)cc(-c2nc3c4c(nc(OC[C@@H]5CCC6CC(F)(F)CCN65)nc4c2F)N2C[C@H]4CC[C@H](N4)[C@H]2[C@H](C)O3)c1C(F)(F)F (single isomer, unassigned) [119 (isomer 2)] | 7.95 nM | 1700 nM | – | –
Cc1c(F)c(N)cc(-c2nc3c4c(nc(OC[C@@]5(CCF)CCCN5C)nc4c2F)N2C[C@H]4CC[C@H](N4)[C@H]2[C@H](C)O3)c1C(F)(F)F (single isomer, unassigned) [127 (isomer 1)] | 50.1 nM | 6080 nM | – | –
